Measured values as given in ChEMBL document CHEMBL1201862, “PubChem BioAssay data set” (2004).
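Tested at 5 concentrations; 48 h exposure; 96-well plates; endpoints linearly interpolated, else capped at highest concentration. Abbreviation: GI50, concentration required for 50% inhibition of growth.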 The source made the active and inactive calls. No stated cut-off is given here; in the data, active = GI50 up to about 1.1 µM and inactive = higher.

Columns and labels:
Test in all cases: inhibition of tumour cell growth, NCI panel, 48 h
PC-3 = test system: PC-3
SK-MEL-5 = test system: SK-MEL-5
EKVX = test system: EKVX
UACC-62 = test system: UACC-62
786-0 = test system: 786-0
NCI-H226 = test system: NCI-H226
OVCAR-8 = test system: OVCAR-8
NCI/ADR-RES = test system: NCI/ADR-RES
NCI-H460 = test system: NCI-H460
BT-549 = test system: BT-549
TK-10 = test system: TK-10
HCT-116 = test system: HCT-116
NCI-H522 = test system: NCI-H522
COLO 205 = test system: COLO 205
DU-145 = test system: DU-145
HOP-62 = test system: HOP-62
OVCAR-5 = test system: OVCAR-5
A549 = test system: A549
SNB-19 = test system: SNB-19
LOX IMVI = test system: LOX IMVI
M14 = test system: M14
ACHN = test system: ACHN
SNB-75 = test system: SNB-75
UACC-257 = test system: UACC-257
RXF 393 = test system: RXF 393
SF-295 = test system: SF-295
UO-31 = test system: UO-31
SK-OV-3 = test system: SK-OV-3
NCI-H23 = test system: NCI-H23
MCF7 = test system: MCF7
HCT-15 = test system: HCT-15
A498 = test system: A498
SF-268 = test system: SF-268
OVCAR-4 = test system: OVCAR-4
HT-29 = test system: HT-29
SR = test system: SR
SF-539 = test system: SF-539
Malme-3M = test system: Malme-3M
CAKI-1 = test system: CAKI-1
SK-MEL-2 = test system: SK-MEL-2
T47D = test system: T47D
SW-620 = test system: SW-620
RPMI-8226 = test system: RPMI-8226
K562 = test system: K562
U-251 = test system: U-251
OVCAR-3 = test system: OVCAR-3
HCC 2998 = test system: HCC 2998
SK-MEL-28 = test system: SK-MEL-28
MDA-MB-435 = test system: MDA-MB-435
KM12 = test system: KM12
MOLT-4 = test system: MOLT-4
MDA-MB-231 = test system: MDA-MB-231

SMILES: CCN1C/C(=C\c2ccc(Cl)cc2)C2=NN(c3ccccc3)C(c3ccc(Cl)cc3)C2C1 (configuration not stated)
- GI50 (PC-3): > 100 µM (inactive)
- GI50 (SK-MEL-5): > 100 µM (inactive)
- GI50 (EKVX): > 100 µM (inactive)
- GI50 (UACC-62): > 100 µM (inactive)
- GI50 (786-0): > 100 µM (inactive)
- GI50 (NCI-H226): > 100 µM (inactive)
- GI50 (OVCAR-8): > 100 µM (inactive)
- GI50 (NCI/ADR-RES): > 100 µM (inactive)
- GI50 (NCI-H460): > 100 µM (inactive)
- GI50 (BT-549): > 100 µM (inactive)
- GI50 (TK-10): > 100 µM (inactive)
- GI50 (HCT-116): > 100 µM (inactive)
- GI50 (NCI-H522): > 100 µM (inactive)
- GI50 (COLO 205): > 100 µM (inactive)
- GI50 (DU-145): > 100 µM (inactive)
- GI50 (HOP-62): > 100 µM (inactive)
- GI50 (OVCAR-5): > 100 µM (inactive)
- GI50 (A549): > 100 µM (inactive)
- GI50 (SNB-19): > 100 µM (inactive)
- GI50 (LOX IMVI): > 100 µM (inactive)
- GI50 (M14): > 100 µM (inactive)
- GI50 (ACHN): > 100 µM (inactive)
- GI50 (SNB-75): > 100 µM (inactive)
- GI50 (UACC-257): > 100 µM (inactive)
- GI50 (RXF 393): > 100 µM (inactive)
- GI50 (SF-295): > 100 µM (inactive)
- GI50 (UO-31): > 100 µM (inactive)
- GI50 (SK-OV-3): > 100 µM (inactive)
- GI50 (NCI-H23): > 100 µM (inactive)
- GI50 (MCF7): 53.1 µM (inactive)
- GI50 (HCT-15): > 100 µM
- GI50 (A498): > 100 µM (inactive)

SMILES: COC1O[C@H]2[C@H]3[C@@H]1[C@@H](OS(=O)(=O)c1ccc(C)cc1)C(=O)N3C[C@H]2O (some centres not stated)
- GI50 (PC-3): 81.8 µM (inactive)
- GI50 (SF-268): > 100 µM (inactive)
- GI50 (SK-MEL-5): > 100 µM (inactive)
- GI50 (EKVX): > 100 µM (inactive)
- GI50 (OVCAR-4): > 100 µM (inactive)
- GI50 (HT-29): > 100 µM (inactive)
- GI50 (UACC-62): > 100 µM (inactive)
- GI50 (SR): > 100 µM (inactive)
- GI50 (786-0): > 100 µM (inactive)
- GI50 (NCI-H226): > 100 µM (inactive)
- GI50 (OVCAR-8): > 100 µM (inactive)
- GI50 (NCI/ADR-RES): > 100 µM (inactive)
- GI50 (SF-539): > 100 µM (inactive)
- GI50 (NCI-H460): > 100 µM (inactive)
- GI50 (BT-549): > 100 µM (inactive)
- GI50 (TK-10): > 100 µM (inactive)
- GI50 (HCT-116): > 100 µM (inactive)
- GI50 (COLO 205): > 100 µM (inactive)
- GI50 (Malme-3M): > 100 µM (inactive)
- GI50 (DU-145): > 100 µM (inactive)
- GI50 (HOP-62): > 100 µM (inactive)
- GI50 (CAKI-1): > 100 µM (inactive)
- GI50 (OVCAR-5): > 100 µM (inactive)
- GI50 (A549): > 100 µM (inactive)
- GI50 (SNB-19): > 100 µM (inactive)
- GI50 (SK-MEL-2): > 100 µM (inactive)
- GI50 (LOX IMVI): > 100 µM (inactive)
- GI50 (T47D): 64.4 µM (inactive)
- GI50 (SW-620): > 100 µM (inactive)
- GI50 (M14): > 100 µM (inactive)
- GI50 (ACHN): > 100 µM (inactive)
- GI50 (RPMI-8226): 61.2 µM (inactive)
- GI50 (UACC-257): > 100 µM (inactive)
- GI50 (K562): 65.9 µM (inactive)
- GI50 (U-251): > 100 µM (inactive)
- GI50 (RXF 393): 17.9 µM (inactive)
- GI50 (OVCAR-3): > 100 µM (inactive)
- GI50 (SF-295): > 100 µM (inactive)
- GI50 (UO-31): > 100 µM (inactive)
- GI50 (SK-OV-3): > 100 µM (inactive)
- GI50 (HCC 2998): > 100 µM (inactive)
- GI50 (NCI-H23): > 100 µM (inactive)
- GI50 (MCF7): > 100 µM (inactive)
- GI50 (HCT-15): > 100 µM
- GI50 (SK-MEL-28): > 100 µM (inactive)
- GI50 (MDA-MB-435): > 100 µM (inactive)
- GI50 (KM12): > 100 µM (inactive)
- GI50 (MOLT-4): 48.5 µM (inactive)
- GI50 (A498): > 100 µM (inactive)
- GI50 (MDA-MB-231): > 100 µM (inactive)
